# Laboratory results taken from patent US20250268903A1, “RXFP1 AGONISTS” (BRISTOL-MYERS SQUIBB COMPANY, priority 2021, published 2025).
# Target: T1, human RXFP1 (Homo sapiens, UniProt Q9HBX9)
# T1 construct: expressed in transfected cells
# T1 sequence (Q9HBX9 1-757): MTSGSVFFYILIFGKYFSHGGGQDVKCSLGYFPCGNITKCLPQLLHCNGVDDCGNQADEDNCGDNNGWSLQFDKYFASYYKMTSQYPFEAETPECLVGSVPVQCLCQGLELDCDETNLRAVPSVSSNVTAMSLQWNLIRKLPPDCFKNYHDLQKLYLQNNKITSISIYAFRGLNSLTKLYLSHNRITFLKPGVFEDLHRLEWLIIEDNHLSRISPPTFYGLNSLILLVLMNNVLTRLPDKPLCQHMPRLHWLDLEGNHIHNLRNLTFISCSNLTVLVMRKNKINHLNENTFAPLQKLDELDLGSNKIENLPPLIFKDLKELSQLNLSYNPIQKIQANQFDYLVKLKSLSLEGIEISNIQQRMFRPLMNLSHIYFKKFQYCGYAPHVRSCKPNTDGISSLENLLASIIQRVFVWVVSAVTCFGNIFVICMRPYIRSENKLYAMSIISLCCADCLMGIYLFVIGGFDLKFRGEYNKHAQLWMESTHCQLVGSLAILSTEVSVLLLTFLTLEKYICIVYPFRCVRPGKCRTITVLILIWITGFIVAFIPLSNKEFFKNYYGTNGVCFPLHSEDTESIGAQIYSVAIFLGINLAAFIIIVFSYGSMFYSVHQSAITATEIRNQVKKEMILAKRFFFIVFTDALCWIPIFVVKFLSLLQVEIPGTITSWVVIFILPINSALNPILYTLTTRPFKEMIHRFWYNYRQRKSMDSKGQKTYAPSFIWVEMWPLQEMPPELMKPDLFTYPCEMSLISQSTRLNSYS
# Assay: hRXFP1 HEK293 cAMP assay (HTRF)
# Format: cell-based
# Conditions: HEK293 cells stably expressing human RXFP1, 30 min at room temperature
# Procedure, shortened: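 HEK293 cells stably expressing human RXFP1 (1500 cells/well) in HBSS/20 mM HEPES/0.05% BSA/0.5 mM IBMX. Compounds were tested at 0.010 nM–50 μM final (2% DMSO) for 30 min at room temperature. cAMP was measured by HTRF and values derived by 4-parameter logistic fit.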
row,Compound,EC50
1,"COc1ccc(C2CCCC(C(=O)O)C2)cc1C(=O)NC1C2CCC(/C2=C/C(F)(F)F)[C@@H]1C(=O)Nc1ccc(F)c(C(F)(F)F)c1 (stereo partly drawn) [Example 144, 3-(3-{[(2R,3S,7Z)-3-{[4-fluoro-3-(trifluoromethyl)phe-nyl]carbamoyl}-7-(2,2,2-trifluoroethylidene)bi-cyclo[2.2.1]heptan-2-yl]carbamoyl}-4-methoxyphenyl)cyclo-hexane-1-carboxylic acid]",134 nM
2,"COc1ccc([C@H]2C[C@H](O)C2)cc1C(=O)NC1C2CCC(/C2=C/C(F)(F)F)[C@@H]1C(=O)Nc1ccc(F)c(C(F)(F)F)c1 (stereo partly drawn) [Example 145, (2S,3R,7Z)-N-[4-fluoro-3-(trifluoromethyl)phe-nyl]-3-{2-methoxy-5-[(1r,3r)-3-hydroxycyclobutyl]benzamido}-7-(2,2,2-trifluoroethylidene)bi-cyclo[2.2.1]heptane-2-carboxamide]",84 nM
3,"COc1ccc([C@H]2C[C@@H](O)C2)cc1C(=O)NC1C2CCC(/C2=C/C(F)(F)F)[C@@H]1C(=O)Nc1ccc(F)c(C(F)(F)F)c1 (stereo partly drawn) [Example 146, (2S,7Z)-N-[4-fluoro-3-(trifluoromethyl)phe-nyl]-3-{2-methoxy-5-[(1s,3s)-3-hydroxycyclobutyl]benz-amido}-7-(2,2,2-trifluoroethylidene)bi-cyclo[2.2.1]heptane-2-carboxamide]",234 nM
4,"COc1ccc([C@H]2C[C@@H](O)C2)cc1C(=O)NC1C2CCC(/C2=C/C2CC2)[C@@H]1C(=O)Nc1ccc(F)c(C(F)(F)F)c1 (stereo partly drawn) [Example 147, (2S,3R,7Z)-7-(cyclopropylmethyli-dene)-N-[4-fluoro-3-(trifluoromethyl)phe-nyl]-3-{2-methoxy-5-[(1r,3r)-3-hydroxycyclobutyl]benzamido}bicyclo [2.2.1]heptane-2-carboxamide]",21 nM
5,"COc1ccc([C@H]2C[C@H](O)C2)cc1C(=O)NC1C2CCC(/C2=C/C2CC2)[C@@H]1C(=O)Nc1ccc(F)c(C(F)(F)F)c1 (stereo partly drawn) [Example 148, (2S,3R,7Z)-7-(cyclopropylmethyli-dene)-N-[4-fluoro-3-(trifluoromethyl)phe-nyl]-3-{2-methoxy-5-[(1r,3r)-3-hydroxycyclobutyl]benzamido}bicyclo [2.2.1]heptane-2-carboxamide]",6 nM
6,"COc1ccc(C2CC3(CC(NC(=O)OC(C)(C)C)C3)C2)cc1C(=O)NC1C2CCC(/C2=C/C(F)(F)F)[C@@H]1C(=O)Nc1ccc(F)c(C(F)(F)F)c1 (stereo partly drawn) [Example 153, tert-butyl N-[6-(3-{[(2R,3S,7Z)-3-{[4-fluoro-3-(trifluoromethyl)phe-nyl]carbamoyl}-7-(2,2,2-trifluoroethylidene)bi-cyclo[2.2.1]heptan-2-yl]carbamoyl}-4-methoxyphenyl)spiro [3.3]heptan-2-yl]carbamate]",1620 nM
7,"COc1ccc(C2CC3(CC(N)C3)C2)cc1C(=O)NC1C2CCC(/C2=C/C(F)(F)F)[C@@H]1C(=O)Nc1ccc(F)c(C(F)(F)F)c1 (stereo partly drawn) [Example 154, (2S,3R,7Z)-3-(5-{6-aminospiro[3.3]hept-an-2-yl}-2-methoxybenzamido)-N-[4-fluoro-3-(trifluoromethyl)phe-nyl]-7-(2,2,2-trifluoroethylidene)bi-cyclo[2.2.1]heptane-2-carboxamide]",1050 nM
8,"COc1ccc(Cc2ccc(F)cc2)cc1C(=O)N[C@H]1[C@@H](C(=O)Nc2ccc(F)c(C(F)(F)F)c2)[C@H]2CC[C@@H]1/C2=C\C(F)(F)F [Example 155, (1R,2S,3R,4R,Z)—N-(4-fluoro-3-(trifluoromethyl)phenyl)-3-(5-(4-fluorobenzyl)-2-methoxybenzamido)-7-(2,2,2-trifluoroethylidene) bicyclo[2.2.1]heptane-2-carboxamide]",427 nM
9,"COC(=O)c1ccc(F)cc1Cc1ccc(OC)c(C(=O)NC2C3CCC(/C3=C/C(F)(F)F)[C@@H]2C(=O)Nc2ccc(F)c(C(F)(F)F)c2)c1 (stereo partly drawn) [Example 156, methyl 4-fluoro-2-[(3-{[(2R,3S,7Z)-3-{[4-fluoro-3-(trifluoromethyl)phe-nyl]carbamoyl}-7-(2,2,2-trifluoroethylidene)bi-cyclo[2.2.1]heptan-2-yl]carbamoyl}-4-methoxyphenyl)meth-yl]benzoate]",464 nM
10,"COc1ccc(CCC(C)(C)O)cc1C(=O)NC1C2CCC(/C2=C/C2CC(F)(F)C2)[C@@H]1C(=O)Nc1ccc(F)c(C(F)(F)F)c1 (stereo partly drawn) [Example 160, (2S,3R,7Z)-7-[(3,3-difluorocyclobutyl)methylidene]-N-[4-fluoro-3-(trifluoromethyl)phe-nyl]-3-[5-(3-hydroxy-3-methylbutyl)-2-methoxybenzamido] bicyclo[2.2.1]heptane-2-carboxamide]",51 nM
11,"COc1ccc(CCC(C)(C)O)cc1C(=O)NC1C2CCC(/C2=C/C2CCOCC2)[C@@H]1C(=O)Nc1ccc(F)c(C(F)(F)F)c1 (some centres unmarked) [Example 166, (7Z)-N-[4-fluoro-3-(trifluoromethyl)phe-nyl]-3-[5-(3-hydroxy-3-methylbutyl)-2-methoxybenzamido]-7-[(oxan-4-yl)methylidene]bicy-clo[2.2.1]heptane-2-carboxamide]",129 nM

# Now from value to compound:
row,EC50,Compound
1,54 nM,"COc1ccc(CCCO)cc1C(=O)N[C@H]1[C@@H](C(=O)Nc2ccc(F)c(C(F)(F)F)c2)[C@H]2CC[C@@H]1/C2=C\C(C)C [Example 157, (1R,2S,3R,4R,Z)—N-(4-fluoro-3-(trifluoromethyl)phenyl)-3-(5-(3-hydroxypropyl)-2-methoxybenzamido)-7-(2-methylpropylidene) bicyclo[2.2.1]heptane-2-carboxamide]"
2,9 nM,"COc1ccc(CCC(C)(C)O)cc1C(=O)NC1C2CCC(/C2=C/C(C)C)[C@@H]1C(=O)Nc1ccc(F)c(C(F)(F)F)c1 (some centres unmarked) [Example 158, (7Z)-N-[4-fluoro-3-(trifluoromethyl)phe-nyl]-3-[5-(3-hydroxy-3-methylbutyl)-2-methoxybenzamido]-7-(2-methylpropylidene)bi-cyclo[2.2.1]heptane-2-carboxamide]"
3,43 nM,"COc1ccc(CCCO)cc1C(=O)NC1C2CCC(/C2=C/C2CC(F)(F)C2)[C@@H]1C(=O)Nc1ccc(F)c(C(F)(F)F)c1 (stereo partly drawn) [Example 159, (2S,3R,7Z)-7-[(3,3-difluorocyclobutyl)methylidene]-N-[4-fluoro-3-(trifluoromethyl)phe-yl]-3-[5-(3-hydroxypropyl)-2-methoxybenzamideo] bicyclo[2.2.1]heptane-2-carboxamide]"
4,1160 nM,"COCC/C=C1\C2CCC1[C@H](C(=O)Nc1ccc(F)c(C(F)(F)F)c1)C2NC(=O)c1cc(CCCO)ccc1OC (some centres unmarked) [Example 161, (7Z)-N-[4-fluoro-3-(trifluoromethyl)phe-nyl]-3-[5-(3-hydroxypropyl)-2-methoxybenzamido]-7-(3-methoxypropylidene) bicyclo[2.2.1]heptane-2-carboxamide]"
5,1240 nM,"COCC/C=C1\C2CCC1[C@H](C(=O)Nc1ccc(F)c(C(F)(F)F)c1)C2NC(=O)c1cc(CCC(C)(C)O)ccc1OC (some centres unmarked) [Example 162, (7Z)-N-[4-fluoro-3-(trifluoromethyl)phe-nyl]-3-[5-(3-hydroxy-3-methylbutyl)-2-methoxybenzamido]-7-(3-methoxypropylidene) bicyclo[2.2.1]heptane-2-carboxamide]"
6,278 nM,"COc1ccc(CCC(C)(C)O)cc1C(=O)NC1C2CCC(/C2=C/CC(C)(C)C)[C@@H]1C(=O)Nc1ccc(F)c(C(F)(F)F)c1 (some centres unmarked) [Example 163, (7Z)-7-(3,3-dimethylbutylidene)-N-[4-fluoro-3-(trifluoromethyl)phe-nyl]-3-[5-(3-hydroxy-3-methylbutyl)-2-methoxybenzamido] bicyclo[2.2.1]heptane-2-carboxamide]"
7,218 nM,"COc1ccc(CCCO)cc1C(=O)NC1C2CCC(/C2=C/C2CCOCC2)[C@@H]1C(=O)Nc1ccc(F)c(C(F)(F)F)c1 (some centres unmarked) [Example 165, (7Z)-N-[4-fluoro-3-(trifluoromethyl)phe-nyl]-3-[5-(3-hydroxypropyl)-2-methoxybenzamido]-7-[(oxan-4-yl)methylidene]bicy-clo[2.2.1]heptane-2-carboxamide]"
8,11 nM,"COc1ccc(CCCO)cc1C(=O)NC1C2CCC(/C2=C/C2CCCC2)[C@@H]1C(=O)Nc1ccc(F)c(C(F)(F)F)c1 (some centres unmarked) [Example 167, (7Z)-7-(cyclopentylmethyli-dene)-N-[4-fluoro-3-(trifluoromethyl)phe-nyl]-3-[5-(3-hydroxypropyl)-2-methoxybenzamido] bicyclo[2.2.1]heptane-2-carboxamide]"
9,8 nM,"COc1ccc(CCC(C)(C)O)cc1C(=O)NC1C2CCC(/C2=C/C2CCCC2)[C@@H]1C(=O)Nc1ccc(F)c(C(F)(F)F)c1 (some centres unmarked) [Example 168, (7Z)-7-(cyclopentylmethyli-dene)-N-[4-fluoro-3-(trifluoromethyl)phe-nyl]-3-[5-(3-hydroxy-3-methylbutyl)-2-methoxybenzamido] bicyclo[2.2.1]heptane-2-carboxamide]"
